Test results from US20240343710A1, “HETEROCYCLIC COMPOUNDS AND METHODS OF USE THEREOF” (1cBio, Inc., priority 2023, published 2024).
Structures can show the parent of a compound that is named as a salt. Where two headings read alike, the source gives them in different places.

Key:
[1] = target: recombinant human PARP1 (Homo sapiens, UniProt P09874); experiment: PARP1 fluorescence polarization binding assay; conditions: GST-tagged PARP1 20 nM, PARP1-FL probe 3 nM
Protocol: In some embodiments, the biological assay is described in the Examples herein. In some embodiments, the biological assay measures PARP-1 binding by way of fluorescence polarization measurements. In some embodiments, binding of a test compound to recombinant human PARP-1 reduces the amount of binding of a fluorescent probe, and consequently reduces the detected level of fluorescence polarization. In some test compound stock solutions are prepared in a solvent, e.g., DMSO, and are serially diluted into a range of concentrations, e.g., 15 concentrations, 14 concentrations, 13 concentrations, 12 concentrations, 11 concentrations, 10 concentrations, 9 concentrations, 8 concentrations, 7 concentrations, 6 concentrations, or 5 concentrations, by a dilution factor, e.g., a 10-fold dilution factor, a 9-fold dilution factor, an 8-fold dilution factor, a 7-fold dilution factor, a 6-fold dilution factor, a 5-fold dilution factor, a 4-fold dilution factor, a 3-fold dilution factor, or a 2-fold dilution factor. In some embodiments, the serial dilutions, e.g., 100 nL of serial dilution, 90 nL of serial dilution, 80 nL of serial dilution, 70 nL of serial dilution, 60 nL of serial dilution, 50 nL of serial dilution, 30 nL of serial dilution, 20 nL of serial dilution, or 10 nL of serial dilution, are added to a multi-welled plate, e.g., a 1536-well plate, a 384-well plate, or a 96-well plate. In some embodiments, PARP-1, e.g., GST-tagged PARP-1, is diluted in assay buffer, e.g., 50 μL of assay buffer, 40 μL of assay buffer, e.g., 30 μL of assay buffer, 20 μL of assay buffer, 10 μL of assay buffer, or 5 μL of assay buffer, and is added to the plate. In some embodiments, the plate is centrifuged, e.g., at 1000 rpm for 1 min, and incubated, e.g., incubated for 30 minutes at room temperature (RT). In some embodiments, a fluorescent probe, e.g., 10 μL of 6 nM PARP1-FL (TOCRIS, Cat #6461), is diluted in an assay buffer and is added to the plate. In some embodiments, the final concentrations of PARP-1 and fluorescent probe are 20 nM and 3 nM, respectively, in a total volume of 20 μL. In some embodiments, the plate is centrifuged, e.g., at 1000 rpm for 1 minute, and the assay plate is incubated, e.g., for 4 h at RT. In some embodiments, the samples in each well are read using a plate reader, e.g., an Envision instrument using excitation=480 nm, and emission wavelength=FITC FP-P pol 535 nm & FITC FP-S pol 535 nm). In some embodiments, percent inhibition is calculated from mP values using Inhibition (%)=[1−(mPc−mPL)/(mPH−mPL)]×100%, where mPc, mPL, and mPH are the mP values of test compound, Low controls, and High controls, respectively. In some embodiments, binding IC50 values are calculated using XLFit (equation 201: y=A+((B−A)/(1+((x/C)^D))), where A=bottom, B=top, C=IC50, and D=slope) with a floating top and bottom for curves.
Compounds of the present disclosure were tested in a PARP1 fluorescence polarization binding assay at Pharmaron (Beijing, P.R. China). In this biochemical assay, binding of test compound to recombinant human PARP1 reduces the amount of binding of a fluorescent probe, and consequently reduces the detected level of fluorescence polarization. Test compound stock solutions were prepared in DMSO and then serially diluted into 10 concentrations by 3-fold dilution in a 384-well plate using a TECAN EVO200. Alternatively, a single concentration was prepared. 60 nL of each dilution was transferred to the plate using an Echo550 (Labcyte), and then 10 μL 40 nM GST-tagged PARP1 (BPS Bioscience, Cat #80501), diluted in assay buffer (50 mM Tris pH 8.0, 0.001% Triton X-100, 10 mM MgCl2, 150 mM NaCl), was added to the plate. After a centrifugation at 1000 rpm for 1 min, the assay plate was incubated for 30 min at RT. 10 μL 6 nM PARP1-FL (TOCRIS, Cat #6461), diluted using assay buffer, was then added to the plate. The final concentrations of PARP1 and PARP1-FL were 20 nM and 3 nM, respectively, in a total volume of 20 μL. […]

[2] = target: recombinant human PARP2 (Homo sapiens, UniProt Q9UGN5); experiment: PARP2 fluorescence polarization binding assay; conditions: read-out: PARP2 % inh at 10 μM
[3] = system: DLD-1 BRCA2(−/−) colorectal adenocarcinoma cells; experiment: Cell viability assay (Cell Titer-Glo, 7 days), DLD-1 BRCA2(−/−); assay type: cell-based; conditions: Homo sapiens, 168 h, DLD-1 BRCA2(−/−) cells
Description: (§1) In some embodiments, the biological assay measures the effects that compounds of the present disclosure may have on the viability of cells, e.g., the viability of cancer cells. In some embodiments, DLD-1 wild-type and DLD-1 BRCA2(−/−) colorectal adenocarcinoma cells, an isogenic pair of cell lines differing in the presence and absence, respectively, of both BRCA2 alleles, are used to measure the effect of the disclosed compounds on the viability of cancer cells. In some embodiments, the cells are harvested during the logarithmic growth period, counted, and seeded at a specified count in the wells of a 96- or 384-well cell culture plate. In some embodiments, after seeding, the cells are incubated, e.g., at 37° C., 5% CO2 overnight. In some embodiments, the cells are treated with compounds, e.g., with serially diluted test compounds at 8-11 concentrations within a desired concentration range, e.g., from 1 nM-10 μM, for the generation of dose-response curves. In some embodiments, the plate is further incubated, e.g., for another 3-7 days in a humidified incubator at 37° C. and 5% CO2. In some embodiments, cell viability is assessed by luminescence measurement after addition of Cell Titer-Glo reagent (Promega, Madison, Wis.) according to the manufacturer's instructions. In some embodiments, cell viability IC50 values are calculated using XLFit, equation 201: y=A+((B−A)/(1+((x/C)^D))), where A=bottom, B=top, C=IC50, and D=slope. In some embodiments, the effects of the test compounds on the viability of other cell lines such as MDA-MB-436, MDA-MB-231, SUM149PT, HCC1395, and UWB1.289 are determined in an analogous method.
(§2) Compounds of the present disclosure were tested for their effects on the viability of cancer cells. DLD-1 wild-type and DLD-1 BRCA2(−/−) colorectal adenocarcinoma cells, an isogenic pair of cell lines differing in the presence and absence, respectively, of both BRCA2 alleles, were used. The cells were harvested during the logarithmic growth period, counted, and seeded at 50 cells/well for DLD-1 wild-type and 200 cells/well for DLD-1 BRCA2(−/−) in a 384-well cell culture plate. After seeding, cells were incubated at 37° C., 5% CO2 overnight. Cells were treated with serially diluted test compounds at 10 concentrations (e.g., from 1.5 nM-30 μM) for generation of dose response curves, or at a single concentration. The plate was further incubated for another 7 days in a humidified incubator at 37° C. and 5% CO2. Cell viability was assessed by luminescence measurement after addition of Cell Titer-Glo reagent (Promega, Madison, Wis.) according to the manufacturer's instructions. Cell viability IC50 values were calculated using XLFit, equation 201. y=A+((B−A)/(1+((x/C)^D))), where A=bottom, B=top, C=IC50, and D=slope. IC50 values are shown in Table B and are presented in ranges, in which “+++”<300 nM, 300 nM≤“++”<3000 nM, and “+”≥3000 nM. Values for percent inhibition at 10 μM are also shown in Table B and are presented in ranges, in which “***”≥67%, 33%: “**”≤67%, and “*”<33%. Effects of the test compounds on the viability of other cell lines such as MDA-MB-436, MDA-MB-231, SUM149PT, HCC1395, and UWB1.289 are determined in an analogous method.

[4] = system: DLD-1 wild-type colorectal adenocarcinoma cells; experiment: Cell viability assay (Cell Titer-Glo, 7 days), DLD-1 wild-type; assay type: cell-based; conditions: Homo sapiens, 168 h, DLD-1 wild-type cells, read-out: DLD-1 wild-type % inh at 10 μM
Description: as §1, §2

[5] = percent inhibition at 10 μM, fluorescence polarization, GST-tagged PARP2 20 nM, PARP1-FL probe 3 nM

recombinant human PARP1, sequence (P09874 whole entry): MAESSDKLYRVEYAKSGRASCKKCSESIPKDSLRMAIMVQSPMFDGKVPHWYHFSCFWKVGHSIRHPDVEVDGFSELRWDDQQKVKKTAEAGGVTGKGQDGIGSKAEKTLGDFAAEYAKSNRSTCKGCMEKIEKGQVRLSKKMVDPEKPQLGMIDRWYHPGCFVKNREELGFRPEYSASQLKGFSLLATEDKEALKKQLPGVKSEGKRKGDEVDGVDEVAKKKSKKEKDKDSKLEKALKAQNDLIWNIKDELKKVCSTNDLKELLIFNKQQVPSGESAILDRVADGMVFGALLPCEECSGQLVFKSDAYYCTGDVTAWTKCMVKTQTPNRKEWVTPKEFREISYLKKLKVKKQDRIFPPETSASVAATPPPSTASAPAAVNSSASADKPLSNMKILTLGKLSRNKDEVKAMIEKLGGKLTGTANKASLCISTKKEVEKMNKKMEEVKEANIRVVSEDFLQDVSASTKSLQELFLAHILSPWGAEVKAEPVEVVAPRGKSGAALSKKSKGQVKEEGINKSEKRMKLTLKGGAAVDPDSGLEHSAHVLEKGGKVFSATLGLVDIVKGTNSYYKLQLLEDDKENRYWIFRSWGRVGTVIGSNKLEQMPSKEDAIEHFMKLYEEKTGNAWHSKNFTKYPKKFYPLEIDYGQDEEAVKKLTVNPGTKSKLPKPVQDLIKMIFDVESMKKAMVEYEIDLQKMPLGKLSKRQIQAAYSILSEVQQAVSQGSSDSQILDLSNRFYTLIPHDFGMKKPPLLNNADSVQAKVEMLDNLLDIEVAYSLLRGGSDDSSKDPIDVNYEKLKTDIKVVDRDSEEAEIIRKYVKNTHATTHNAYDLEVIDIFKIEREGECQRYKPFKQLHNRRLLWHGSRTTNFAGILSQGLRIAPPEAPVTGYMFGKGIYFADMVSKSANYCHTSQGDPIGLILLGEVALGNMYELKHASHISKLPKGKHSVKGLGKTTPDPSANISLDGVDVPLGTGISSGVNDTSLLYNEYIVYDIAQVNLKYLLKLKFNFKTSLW
recombinant human PARP2, sequence (Q9UGN5 whole entry): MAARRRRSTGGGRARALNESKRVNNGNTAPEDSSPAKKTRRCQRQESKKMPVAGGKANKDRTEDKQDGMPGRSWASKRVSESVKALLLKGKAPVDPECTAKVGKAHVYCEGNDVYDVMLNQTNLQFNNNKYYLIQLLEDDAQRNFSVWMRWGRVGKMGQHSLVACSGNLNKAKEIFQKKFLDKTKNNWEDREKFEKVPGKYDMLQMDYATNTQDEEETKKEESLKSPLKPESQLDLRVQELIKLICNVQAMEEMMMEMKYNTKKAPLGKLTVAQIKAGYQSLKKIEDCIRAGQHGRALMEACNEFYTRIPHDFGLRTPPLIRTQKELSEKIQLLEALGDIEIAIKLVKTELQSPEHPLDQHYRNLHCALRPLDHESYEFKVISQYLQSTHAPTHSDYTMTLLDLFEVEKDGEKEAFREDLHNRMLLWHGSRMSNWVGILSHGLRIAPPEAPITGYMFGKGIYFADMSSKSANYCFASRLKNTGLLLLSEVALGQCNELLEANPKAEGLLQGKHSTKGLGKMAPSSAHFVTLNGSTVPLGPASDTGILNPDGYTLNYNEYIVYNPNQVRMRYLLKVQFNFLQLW

| Compound | IC50 [1] [nM] | inhibition at 10 µM [2, 5] [%] | IC50 [3] [nM] | inhibition at 10 µM [4] [%] | inhibition at 10 µM [2] [%] |
| --- | --- | --- | --- | --- | --- |
| CCNC(=O)Nc1cc(CN2CCN(c3ccc(C(=O)NC)cc3F)CC2)ccn1 [Compound 31, 4-(4-((2-(3-ethylureido)pyridin-4-yl)methyl)piperazin-1-yl)-3-fluoro-N-methylbenzamide] | < 100 | < 33 | 300 to 3000 | < 33 | – |
| CNC(=O)Nc1cc(CN2CCN(c3ccc(C(=O)NC)nc3C)CC2)ccn1 [Compound 42, N,6-dimethyl-5-(4-((2-(3-methylureido)pyridin-4-yl)methyl)piperazin-1-yl)picolinamide trifluoroacetate] | < 100 | – | < 300 | < 33 | < 33 |
| CCNC(=O)Nc1cc(CN2CCN(c3ccc(C(=O)NC)nc3C)CC2)c(C)cn1 [Compound 70, 5-(4-((2-(3-ethylureido)-5-methylpyridin-4-yl)methyl)piperazin-1-yl)-N,6-dimethylpicolinamide formate] | < 100 | – | < 300 | < 33 | < 33 |
| CCNC(=O)Nc1cc(CN2CCN(c3ccc(C(=O)NC)nc3F)CC2)ncn1 [Compound 229, 5-(4-((6-(3-ethylureido)pyrimidin-4-yl)methyl)piperazin-1-yl)-6-fluoro-N-methylpicolinamide formate] | < 100 | – | < 300 | < 33 | < 33 |
| CCNC(=O)Nc1cc(CN2CCN(c3ccc(C(=O)NC)nc3C)CC2)ncn1 [Compound 230, 5-(4-((6-(3-ethylureido)pyrimidin-4-yl)methyl)piperazin-1-yl)-N,6-dimethylpicolinamide formate] | < 100 | – | < 300 | < 33 | < 33 |
| CCNC(=O)Nc1ncc(CN2CCN(c3ccc(C(=O)NC)nc3C)CC2)s1 [Compound 242, 5-(4-((2-(3-ethylureido)thiazol-5-yl)methyl)piperazin-1-yl)-N,6-dimethylpicolinamide trifluoroacetate] | < 100 | – | 300 to 3000 | < 33 | < 33 |

The next lines start with results.

| IC50 [1] [nM] | inhibition at 10 µM [2, 5] [%] | IC50 [3] [nM] | Compound | inhibition at 10 µM [4] [%] | inhibition at 10 µM [2] [%] |
| --- | --- | --- | --- | --- | --- |
| < 100 | < 33 | < 300 | CNC(=O)c1ccc(N2CCN(Cc3ccnc(NC(=O)NC4CC4)c3)CC2)c(C)n1 [Compound 46, 5-(4-((2-(3-cyclopropylureido)pyridin-4-yl)methyl)piperazin-1-yl)-N,6-dimethylpicolinamide] | < 33 | – |
| < 100 | < 33 | < 300 | CNC(=O)c1ccc(N2CCN(Cc3ccnc(NC(=O)NCC(F)(F)F)c3)CC2)c(C)n1 [Compound 50, N,6-dimethyl-5-(4-((2-(3-(2,2,2-trifluoroethyl)ureido)pyridin-4-yl)methyl)piperazin-1-y) picolinamide trifluoroacetate] | < 33 | – |
| < 100 | < 33 | < 300 | CCNC(=O)Nc1nccc(CN2CCN(c3ccc(C(=O)NC)nc3F)CC2)c1F [Compound 81, 5-(4-((2-(3-ethylureido)-3-fluoropyridin-4-yl)methyl)piperazin-1-yl)-6-fluoro-N-methylpicolinamide] | < 33 | – |
| < 100 | < 33 | < 300 | CCNC(=O)Nc1nccc(CN2CCN(c3ccc(C(=O)NC)nc3C)CC2)c1F [Compound 82, 5-(4-((2-(3-ethylureido)-3-fluoropyridin-4-yl)methyl)piperazin-1-yl)-N,6-dimethylpicolinamide] | < 33 | – |
| 100 to 3000 | < 33 | 300 to 3000 | CCCC(=O)Nc1cc(CN2CCN(c3ccc(C(=O)NC)nc3C)CC2)ccn1 [Compound 161, 5-(4-((2-butyramidopyridin-4-yl)methyl)piperazin-1-y)-N,6-dimethylpicolinamide] | < 33 | – |
| 100 to 3000 | < 33 | ≥ 3000 | CCNC(=O)Nc1cccc(CN2CCN(c3ccc(C(=O)NC)nc3C)CC2)c1 [Compound 202, 5-(4-(3-(3-ethylureido)benzyl)piperazin-1-yl)-N,6-dimethyl picolinamide formate] | < 33 | – |
